Test results: patent US20250122207A1, “AP2 ASSOCIATED KINASE 1 INHIBITORS AND USES THEREOF” (Satellos Bioscience Inc., priority 2023, published 2025)
Like-named read-outs stand apart in the source and are kept apart here.

How the values were obtained:
AAK1 = AAK1 (Homo sapiens, UniProt Q2M2I8); experiment: pAP2M1 cell-based assay (in-cell Western)
Description: pAP2M1 Cell-Based Assay (in-Cell Western):
The plate was read on Licor Odyssey CLx imaging system (LICOR) to acquire fluorescence intensity at 700 channel and 800 channel.
Data analysis: Fluorescence intensity at 700 channel served as internal standard and 800 channel were normalized with 700 channel.

[1] = biological target: T1, AAK1 (amino acids T27-A365) (Homo sapiens, UniProt Q2M2I8); experiment: AAK1 pSENs assay; format: biochemical
T1 construct: against AAK1 (amino acids T27-A365); 6His (N, cleaved yes)
Method: (§1) The recombinant proteins were independently expressed in Escherichia coli BL21(DE3) cells cultured in Luria-Bertani (LB) medium until OD600 reached 0.6-0.8, then cooled to 15° C. and supplemented with 0.5 mM isopropyl 1-thio-D-galactopyranoside (IPTG) induce protein expression 16 h. Cells were harvested and resuspended in lysis buffer (50 mM HEPES pH 7.5, 500 mM NaCl, 5 mM imidazole, 5% glycerol, 0.5 mM Tris (2-carboxyethyl) phosphine (TCEP), cOmplete Protease Inhibitor Tablet (Roche)) and lysed by microfludics high pressure homogenizer (UH-06, Union-Biotech). Proteins were purified using […] chromatography (His FF column, Bestchrom) and eluted stepwise in binding buffer with 20-300 mM imidazole. Removal of the hexahistidine tag was performed at 4° C. overnight using recombinant TEV protease and reacted with BirA to obtain the corresponding biotinylated-AAK1, BIKE or GAK proteins. Further separated in the reverse Strep column (Strep-Tactin® XT, IBA). The Biotin elution sample was collected containing untagged biotinylated protein was then purified by Ion-exchange chromatography (Mono Q 10/100 GL, Cytiva) and Size-exclusion chromatography (HiLoad 16/600 Superdex 200 pg, Cytiva). The pure protein was stored in a storage buffer 50 mM HEPES (pH 7.5), 300 mM NaCl, 5% glycerol at −80° C. Protein were characterized by SDS-PAGE, LC-MS and aSEC.
(§2) This example describes one illustrative method for determining the IC50 of the compounds of the present invention against AAK1 (amino acids T27-A365). AAK1 protein was dissolved at 20 nM in 1× enzyme solution (50 mM HEPES pH7.5, 10 mM MgCl2, 1 mM DTT, 1% glycerol, 0.5 mM EGTA, 0.01% Briji35, 0.02% BSA) and 12.5 ul was incubated with 250 nl DMSO or 250 nl compound in DMSO at 25° C. for 15 min. The reaction was started by addition of 12.5 ul of 30 uM AQT0759 (Assayquant, CSKS-AQT0759B) and 70 uM ATP which were diluted in 1× substrate dilution buffer (50 mM HEPES pH7.5, 10 mM MgCl2, 1 mM DTT, 1% glycerol, 0.5 mM EGTA, 0.01% Briji35).

[2] = biological target: T2, BIKE (amino acids S38-E345) (K320A, K321A) (Homo sapiens, UniProt Q9NSY1, K320A/K321A); experiment: BIKE pSENs assay; format: biochemical
T2 construct: against BIKE (amino acids S38-E345) (K320A, K321A); 6His (N, cleaved yes)
Method: as §1
as §2, with “BIKE” for “This example describes one illustrative method for determining the IC50 of the compounds of the present invention against AAK1 (amino acids T27-A365). AAK1”, “40” for “70”

[3] = Hela cells co-transfected with AP2M1 and AAK1, 3 hr treatment, class symbols, read-out: AAK1 In-cell Western: IC50
[4] = class symbols, read-out: AAK1 pSENs: EIC50
[5] = class symbols, read-out: BIKE pSENs: IC50

T1 sequence (Q2M2I8 27-365): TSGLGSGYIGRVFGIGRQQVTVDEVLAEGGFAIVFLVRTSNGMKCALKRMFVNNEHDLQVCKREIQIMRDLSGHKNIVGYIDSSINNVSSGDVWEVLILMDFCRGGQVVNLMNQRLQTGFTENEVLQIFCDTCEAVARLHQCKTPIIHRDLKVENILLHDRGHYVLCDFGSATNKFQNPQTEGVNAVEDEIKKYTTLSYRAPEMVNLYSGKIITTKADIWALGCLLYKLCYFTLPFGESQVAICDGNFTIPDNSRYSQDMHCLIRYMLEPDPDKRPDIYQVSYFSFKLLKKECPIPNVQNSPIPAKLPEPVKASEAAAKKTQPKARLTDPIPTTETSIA
Sequence of AAK1 (Q2M2I8 whole entry): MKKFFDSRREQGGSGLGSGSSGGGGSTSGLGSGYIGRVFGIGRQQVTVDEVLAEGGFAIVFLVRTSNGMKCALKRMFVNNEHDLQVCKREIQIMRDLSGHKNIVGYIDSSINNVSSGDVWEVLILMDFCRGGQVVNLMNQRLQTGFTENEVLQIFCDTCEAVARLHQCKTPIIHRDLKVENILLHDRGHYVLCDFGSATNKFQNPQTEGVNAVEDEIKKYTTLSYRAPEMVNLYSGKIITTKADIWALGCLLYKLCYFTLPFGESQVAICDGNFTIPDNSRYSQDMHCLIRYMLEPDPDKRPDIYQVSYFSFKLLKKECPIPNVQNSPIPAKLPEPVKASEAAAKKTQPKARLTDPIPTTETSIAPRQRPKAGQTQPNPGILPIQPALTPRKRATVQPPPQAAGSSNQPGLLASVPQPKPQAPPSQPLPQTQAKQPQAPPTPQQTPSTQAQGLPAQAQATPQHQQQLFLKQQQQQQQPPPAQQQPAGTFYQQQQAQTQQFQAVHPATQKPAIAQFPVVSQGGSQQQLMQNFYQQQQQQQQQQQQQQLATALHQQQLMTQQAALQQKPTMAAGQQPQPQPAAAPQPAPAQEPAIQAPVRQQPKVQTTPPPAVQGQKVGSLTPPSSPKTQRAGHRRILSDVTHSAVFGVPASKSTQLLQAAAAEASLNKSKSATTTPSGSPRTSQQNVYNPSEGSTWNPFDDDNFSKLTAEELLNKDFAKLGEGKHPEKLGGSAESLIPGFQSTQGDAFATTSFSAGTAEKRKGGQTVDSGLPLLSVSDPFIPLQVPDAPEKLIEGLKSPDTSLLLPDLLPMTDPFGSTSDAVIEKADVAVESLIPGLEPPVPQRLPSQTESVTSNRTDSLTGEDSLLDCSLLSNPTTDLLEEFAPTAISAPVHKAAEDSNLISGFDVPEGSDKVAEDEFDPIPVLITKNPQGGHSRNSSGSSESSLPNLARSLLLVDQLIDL
T2 sequence (Q9NSY1 38-345 K320A/K321A): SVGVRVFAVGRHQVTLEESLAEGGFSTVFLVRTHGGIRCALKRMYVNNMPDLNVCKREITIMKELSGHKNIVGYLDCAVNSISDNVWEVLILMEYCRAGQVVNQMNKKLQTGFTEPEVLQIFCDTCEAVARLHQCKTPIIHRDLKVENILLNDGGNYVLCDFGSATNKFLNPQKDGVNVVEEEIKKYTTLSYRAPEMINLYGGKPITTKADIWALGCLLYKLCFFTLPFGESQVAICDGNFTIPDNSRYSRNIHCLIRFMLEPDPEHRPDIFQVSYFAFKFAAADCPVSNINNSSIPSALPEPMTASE

SMILES: CC(C)(C)OC(=O)N1CCC(N2C[C@@H](OC(=O)N3CCN(c4ccn5ncc(-c6cccnc6OC6CC6)c5n4)CC3)CC2=O)CC1 [Compound I-30, [(3S)-1-(1-tert-Butoxycarbonyl-4-piperidyl)-5-oxo-pyrrolidin-3-yl]4-[3-[2-(cyclopropoxy)-3-pyridyl]pyrazolo[1,5-a]pyrimidin-5-yl]piperazine-1-carboxylate]
- IC50 (AAK1; [3]): > 1500 nM
- IC50 [1, 4]: 51 to 150 nM
- IC50 [2, 5]: 501 to 1500 nM

SMILES: O=C(O[C@H]1CC(=O)N(C2CCNCC2)C1)N1CCN(c2ccn3ncc(-c4cccnc4OC4CC4)c3n2)CC1 [Compound I-32, [(3S)-5-Oxo-1-(4-piperidyl)pyrrolidin-3-yl]4-[3-[2-(cyclopropoxy)-3-pyridyl]pyrazolo[1,5-a]pyrimidin-5-yl]piperazine-1-carboxylate]
- IC50 (AAK1; [3]): > 1500 nM
- IC50 [1, 4]: 1 to 50 nM
- IC50 [2, 5]: 51 to 150 nM

SMILES: CN1C[C@@H](OC(=O)N2CCN(c3ccn4ncc(-c5cccnc5OC5CC5)c4n3)CC2)CC1=O [Compound I-34, [(3S)-1-methyl-5-oxo-pyrrolidin-3-yl]-4-[3-[2-(cyclopropoxy)-3-pyridyl]pyrazolo[1,5-a]pyrimidin-5-yl]piperazine-1-carboxylate]
- IC50 (AAK1; [3]): 151 to 500 nM
- IC50 [1, 4]: 1 to 50 nM
- IC50 [2]: 151 to 500 nM

SMILES: CNCCN1C[C@@H](OC(=O)N2CCN(c3ccn4ncc(-c5cccnc5OC5CC5)c4n3)CC2)CC1=O [Compound I-36, (S)-1-(2-(methylamino)ethyl)-5-(oxopyrrolidin-3-yl)-4-(3-(2-cyclopropoxypyridin-3-yl)pyrazolo[1,5-a]pyrimidin-5-yl)piperazine-1-carboxylate]
- IC50 (AAK1; [3]): 501 to 1500 nM
- IC50 [1, 4]: 1 to 50 nM
- IC50 [2, 5]: 51 to 150 nM

SMILES: O=C1C[C@H](OC(=O)N2CCN(c3ccn4ncc(-c5cccnc5OC5CC5)c4n3)CC2)CN1CCO [Compound I-38, [(3S)-1-(2-Hydroxyethyl)-5-oxo-pyrrolidin-3-yl]-4-[3-[2-(cyclopropoxy)-3-pyridyl]pyrazolo[1,5-a]pyrimidin-5-yl]piperazine-1-carboxylate]
- IC50 (AAK1; [3]): > 1500 nM
- IC50 [1, 4]: 1 to 50 nM
- IC50 [2, 5]: 151 to 500 nM

SMILES: C[C@@H]1CN(c2ccn3ncc(-c4cccnc4OC4CC4)c3n2)CCN1C(=O)O[C@@H]1CNC(=O)C1 [Compound I-39, [(3S)-5-oxopyrrolidin-3-yl]-(2R)-4-[3-[2-(cyclopropoxy)-3-pyridyl]pyrazolo[1,5-a]pyrimidin-5-yl]-2-methyl-piperazine-1-carboxylate]
- IC50 (AAK1; [3]): 501 to 1500 nM
- IC50 [1, 4]: 1 to 50 nM
- IC50 [2, 5]: 151 to 500 nM

SMILES: CC(C)(C)OC(=O)N1CC(Oc2ncccc2-c2cnn3ccc(N4CCN(C(=O)O[C@@H]5CNC(=O)C5)CC4)nc23)C1 [Compound I-42]
- IC50 (AAK1; [3]): 501 to 1500 nM
- IC50 [1, 4]: 1 to 50 nM
- IC50 [2, 5]: 151 to 500 nM

SMILES: CN1CC[C@@](C)(OC(=O)N2CCN(c3ccn4ncc(-c5cccnc5OC5CC5)c4n3)CC2)C1 [Compound I-50, [(3R)-1,3-dimethylpyrrolidin-3-yl]-4-[3-[2-(cyclopropoxy)-3-pyridyl]pyrazolo[1,5-a]pyrimidin-5-yl]piperazine-1-carboxylate]
- IC50 (AAK1; [3]): 151 to 500 nM
- IC50 [1, 4]: 1 to 50 nM
- IC50 [2, 5]: 501 to 1500 nM

SMILES: C[C@@]1(OC(=O)N2CCN(c3ccn4ncc(-c5cccnc5OC5CC5)c4n3)CC2)CCN(CCO)C1 [Compound I-52, [(3R)-1-(2-hydroxyethyl)-3-methyl-pyrrolidin-3-yl]-4-[3-[2-(cyclopropoxy)-3-pyridyl]pyrazolo[1,5-a]pyrimidin-5-yl]piperazine-1-carboxylate]
- IC50 (AAK1; [3]): 151 to 500 nM
- IC50 [1, 4]: 1 to 50 nM
- IC50 [2, 5]: 501 to 1500 nM

SMILES: COC(=O)N1CC(Oc2ncccc2-c2cnn3ccc(N4CCN(C(=O)O[C@@H]5CNC(=O)C5)CC4)nc23)C1 [Compound I-58, [(3S)-5-oxopyrrolidin-3-yl]-4-[3-[2-(1-methoxycarbonylazetidin-3-yl)oxy-3-pyridyl]pyrazolo[1,5-a]pyrimidin-5-yl]piperazine-1-carboxylate]
- IC50 (AAK1; [3]): 501 to 1500 nM
- IC50 [1, 4]: 1 to 50 nM
- IC50 [2, 5]: 151 to 500 nM

SMILES: CC(=O)N1CC(Oc2ncccc2-c2cnn3ccc(N4CCN(C(=O)O[C@@H]5CNC(=O)C5)CC4)nc23)C1 [Compound I-59, (S)-5-oxopyrrolidin-3-yl 4-(3-(2-((1-acetylazetidin-3-yl)oxy)pyridin-3-yl)pyrazolo[1,5-a]pyrimidin-5-yl)piperazine-1-carboxylate]
- IC50 (AAK1; [3]): > 1500 nM
- IC50 [1, 4]: 1 to 50 nM
- IC50 [2, 5]: 501 to 1500 nM

SMILES: CN(CCNc1ccn2ncc(-c3cccnc3OC3CC3)c2n1)C(=O)O[C@@H]1CNC(=O)C1 [Compound I-60, [(3S)-5-oxopyrrolidin-3-yl]N-[2-[[3-[2-(cyclopropoxy)-3-pyridyl]pyrazolo[1,5-a]pyrimidin-5-yl]amino]ethyl]-N-methyl-carbamate]
- IC50 (AAK1; [3]): > 1500 nM
- IC50 [1, 4]: 51 to 150 nM
- IC50 [2, 5]: 501 to 1500 nM

SMILES: CN(CCNc1ccn2ncc(-c3cccnc3OC3CN(C(=O)OC(C)(C)C)C3)c2n1)C(=O)OC(C)(C)C [Compound I-62, Tert-butyl3-[[3-[5-[2-[tert-butoxycarbonyl(methyl)amino]ethylamino]pyrazolo[1,5-a]pyrimidin-3-yl]-2-pyridyl]oxy]azetidine-1-carboxylate]
- IC50 (AAK1; [3]): > 1500 nM
- IC50 [1, 4]: 1 to 50 nM
- IC50 [2, 5]: 151 to 500 nM

SMILES: CC(=O)N1CC(Oc2ncccc2-c2cnn3ccc(NCCN(C)C(=O)OC(C)(C)C)nc23)C1 [Compound I-63, Tert-butyl (2-((3-(2-((1-acetylazetidin-3-yl)oxy)pyridin-3-yl)pyrazolo[1,5-a]pyrimidin-5-yl)amino)ethyl)(methyl)carbamate]
- IC50 (AAK1; [3]): 51 to 150 nM
- IC50 [1, 4]: 1 to 50 nM
- IC50 [2, 5]: 51 to 150 nM

SMILES: COC(=O)N1CC(Oc2ncccc2-c2cnn3ccc(NCCN(C)C(=O)OC(C)(C)C)nc23)C1 [Compound I-64, Methyl3-[[3-[5-[2-[tert-butoxycarbonyl(methyl)amino]ethylamino]pyrazolo[1,5-a]pyrimidin-3-yl]-2-pyridyl]oxy]azetidine-1-carboxylate]
- IC50 (AAK1; [3]): 51 to 150 nM
- IC50 [1, 4]: 1 to 50 nM
- IC50 [2, 5]: 51 to 150 nM

SMILES: COc1ncccc1-c1cnn2ccc(N3CCN(C(=O)O[C@H]4CO[C@H]5OCC[C@H]54)CC3)nc12 [Compound I-65, (3R,3aS,6aR)-hexahydrofuro[2,3-b]furan-3-yl 4-(3-(2-methoxypyridin-3-yl)pyrazolo[1,5-a]pyrimidin-5-yl)piperazine-1-carboxylate]
- IC50 (AAK1; [3]): 151 to 500 nM
- IC50 [1, 4]: 1 to 50 nM
- IC50 [2, 5]: 151 to 500 nM

SMILES: COc1ccccc1-c1cnn2ccc(N3CCN(C(=O)O[C@H]4CO[C@H]5OCC[C@H]54)CC3)nc12 [Compound I-69, (3R,3aS,6aR)-hexahydrofuro[2,3-b]furan-3-yl 4-(3-(2-methoxyphenyl)pyrazolo[1,5-a]pyrimidin-5-yl)piperazine-1-carboxylate]
- IC50 (AAK1; [3]): 501 to 1500 nM
- IC50 [1, 4]: 1 to 50 nM
- IC50 [2, 5]: 151 to 500 nM

SMILES: [2H]C1([2H])N(C(=O)O[C@@H]2CNC(=O)C2)C([2H])([2H])C([2H])([2H])N(c2ccn3ncc(-c4cccnc4OC4CC4)c3n2)C1([2H])[2H] [Compound I-72, [(3S)-5-oxopyrrolidin-3-yl]4-[3-[2-(cyclopropoxy)-3-pyridyl]pyrazolo[1,5-a]pyrimidin-5-yl]-2,2,3,3,5,5,6,6-octadeuterio-piperazine-1-carboxylate]
- IC50 (AAK1): 501 to 1500 nM
- IC50 [1]: 1 to 50 nM
- IC50 [2]: 151 to 500 nM
